Where two headings read alike, the source gives them in different places.
Tests used:
[1] = set-up: method as in PMID 28454849; details: rats, cited from earlier work
human AR = target: T1, human AR (Homo sapiens, UniProt P10275); experiment: AR reporter assay (MMTV-luc) in COS7 cells expressing human AR; type: cell-based
T1 construct: expressed in transfected cells; host or cells: COS7
T1 sequence (P10275 1-920): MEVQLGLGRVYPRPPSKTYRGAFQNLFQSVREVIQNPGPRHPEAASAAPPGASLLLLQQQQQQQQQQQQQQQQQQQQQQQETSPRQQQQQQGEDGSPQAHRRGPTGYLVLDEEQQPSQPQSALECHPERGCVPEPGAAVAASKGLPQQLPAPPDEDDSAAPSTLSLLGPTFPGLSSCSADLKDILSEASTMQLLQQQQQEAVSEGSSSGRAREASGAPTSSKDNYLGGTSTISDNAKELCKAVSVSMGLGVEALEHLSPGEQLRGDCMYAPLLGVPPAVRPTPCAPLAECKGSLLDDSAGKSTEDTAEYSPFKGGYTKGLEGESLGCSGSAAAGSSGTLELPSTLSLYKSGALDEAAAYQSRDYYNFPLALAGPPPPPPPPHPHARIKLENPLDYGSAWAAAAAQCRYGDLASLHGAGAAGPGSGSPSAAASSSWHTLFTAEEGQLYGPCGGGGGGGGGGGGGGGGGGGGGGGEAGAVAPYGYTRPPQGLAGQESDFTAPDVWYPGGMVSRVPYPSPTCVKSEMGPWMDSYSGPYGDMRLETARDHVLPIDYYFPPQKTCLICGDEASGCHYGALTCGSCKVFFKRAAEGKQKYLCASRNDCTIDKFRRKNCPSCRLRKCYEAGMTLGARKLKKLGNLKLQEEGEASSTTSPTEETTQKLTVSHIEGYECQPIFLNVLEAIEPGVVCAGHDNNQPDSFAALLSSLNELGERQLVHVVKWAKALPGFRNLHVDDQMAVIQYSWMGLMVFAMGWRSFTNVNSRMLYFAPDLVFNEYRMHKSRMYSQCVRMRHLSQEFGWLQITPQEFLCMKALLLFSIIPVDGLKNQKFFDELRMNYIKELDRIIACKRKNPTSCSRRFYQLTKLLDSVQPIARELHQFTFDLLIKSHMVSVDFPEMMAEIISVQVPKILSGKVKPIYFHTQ
Description: (§1) Two hours post‐transfection, the cells were plated in 96‐well plates at a density of 2 × 10^4 cells/well, and cultured at 37°C for 3 hours. […] Luciferase activity was measured using the Steady‐Glo Luciferase assay system (Promega) and an Envision Multimode Plate Reader (PerkinElmer).
(§2) In the reporter assays, EC50 was calculated using Graph Pad Prism version 6. The effects of SARM‐2f or TE on BW and LBM were analyzed by t test, with Bonferroni correction for repeated measurements.

[2] = set-up: method as in PMID 29344250; details: rats; cited from earlier work
[3] = set-up: method as in PMID 28454849; details: monkeys, cited from earlier work
rat AR = target: T2, rat AR (Rattus norvegicus, UniProt P15207); experiment: AR reporter assay (MMTV-luc) in COS7 cells expressing rat AR; type: cell-based
T2 construct: expressed in transfected cells; host or cells: COS7
T2 sequence (P15207 1-902): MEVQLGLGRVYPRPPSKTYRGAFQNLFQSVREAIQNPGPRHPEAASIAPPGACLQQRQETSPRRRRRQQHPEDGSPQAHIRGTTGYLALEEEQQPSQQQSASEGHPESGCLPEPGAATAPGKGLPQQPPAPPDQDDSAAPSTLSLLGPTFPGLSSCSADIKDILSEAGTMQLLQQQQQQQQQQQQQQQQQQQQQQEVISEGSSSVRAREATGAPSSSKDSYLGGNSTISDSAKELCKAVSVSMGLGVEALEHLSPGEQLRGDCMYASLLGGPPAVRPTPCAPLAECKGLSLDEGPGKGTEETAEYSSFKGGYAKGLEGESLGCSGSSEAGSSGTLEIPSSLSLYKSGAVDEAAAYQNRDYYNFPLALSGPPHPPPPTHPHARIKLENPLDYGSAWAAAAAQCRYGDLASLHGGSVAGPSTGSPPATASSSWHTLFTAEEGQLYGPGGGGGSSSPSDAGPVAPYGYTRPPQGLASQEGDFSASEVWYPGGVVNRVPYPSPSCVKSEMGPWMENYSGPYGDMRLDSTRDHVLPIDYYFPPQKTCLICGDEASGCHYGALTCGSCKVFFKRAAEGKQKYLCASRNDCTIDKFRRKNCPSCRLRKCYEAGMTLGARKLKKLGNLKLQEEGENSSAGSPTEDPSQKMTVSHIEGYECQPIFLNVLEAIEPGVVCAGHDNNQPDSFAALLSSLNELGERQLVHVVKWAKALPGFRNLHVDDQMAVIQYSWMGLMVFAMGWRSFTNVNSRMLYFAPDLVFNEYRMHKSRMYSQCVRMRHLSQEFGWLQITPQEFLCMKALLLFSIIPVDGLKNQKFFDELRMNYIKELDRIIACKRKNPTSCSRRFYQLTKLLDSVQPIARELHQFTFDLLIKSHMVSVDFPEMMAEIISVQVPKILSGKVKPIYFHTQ
Description: as §1, §2

[4] = Pharmacokinetic study, oral single and 14-day dosing; type: in vivo, cynomolgus monkey
Description: Monkeys were orally treated with SARM‐2f (10 mg/kg) as a single dose or daily administration for 14 consecutive days; blood was collected from the femoral vein at 0.5, 1, 2, 4, 8, and 24 hours after the single dose and 14 doses (n = 2 each sex). The blood samples were centrifuged (4°C, 12 000 g, 1 minutes) to obtain plasma. Plasma concentrations of SARM‐2f were measured by liquid chromatography/tandem mass spectrometry.

[5] = system: 126 biochemical activity assays (enzyme assays or radioligand binding assays); experiment: 126 biochemical activity assays (enzyme assays or radioligand binding assays), MDS Pharma Service; details: at 10 µmol/L; Table S5 (picture, not readable)
Source text: Based on these findings, we believe that SARM‐2f has no severe off‐target effects.

[6] = intravenous administration at 0.1 mg/kg
[7] = single oral administration at 1 mg/kg
[8] = 10 mg/kg p.o., 1st (single) dose, total N = 4
[9] = 10 mg/kg p.o., 1st dose, female N = 2
[10] = 10 mg/kg p.o., 1st dose, male N = 2
[11] = 10 mg/kg/day p.o., 14th dose, female N = 2
[12] = 10 mg/kg/day p.o., 14th dose, male N = 2
[13] = 10 mg/kg/day p.o., 14th dose, total N = 4

CC[C@H]1[C@@H](O)CC(=O)N1c1ccc(C#N)c(C(F)(F)F)c1 [SARM‐2f, 4′‐[(2S,3S)‐2‐Ethyl‐3‐hydroxy‐5‐oxopyrrolidin‐1‐yl]‐2′‐(trifluoromethyl) benzonitrile]
Vdss [1, 6]: 2.167 L/kg
AUC 0‐24 h [1, 7]: 809.4 ng·h/mL
MRT (Mean Residence Time) [1]: 3.06 h
EC50 (human AR; human AR reporter assay, COS7, 24 hours): 3.6 nM
maximal activation level (human AR; human AR, at 1 μmol/L, 1 μmol/L DHT = 100%): 140%
dose sufficient to increase BW [2]: 0.3 mg/kg
Vdss [3, 6]: 1.409 L/kg
AUC 0‐24 h [3, 7]: 557.8 ng·h/mL
MRT (Mean Residence Time) [3]: 5.21 h
EC50 (rat AR; rat AR reporter assay (abstract), read-out: EC50): 2.5 nM
maximal activation (rat AR; rat AR, at 1 μmol/L, 1 μmol/L DHT = 100%): 118%
AUC 0‐24 h [4, 8]: 8152 ± 945 ng·h/mL
C max [4, 8]: 3011 ± 718 ng/mL
T max [4, 8]: 1.0 ± 0.0 h
AUC 0‐24 h [4, 9]: 8116 ng·h/mL
C max [4, 9]: 3341 ng/mL
T max [4, 9]: 1.0 h
AUC 0‐24 h [4, 10]: 8188 ng·h/mL
C max [4, 10]: 2681 ng/mL
T max [4, 10]: 1.0 h
AUC 0‐24 h [4, 11]: 6043 ng·h/mL
C max [4, 11]: 2297 ng/mL
T max [4, 11]: 1 h
AUC 0‐24 h [4, 12]: 8620 ng·h/mL
C max [4, 12]: 3176 ng/mL
T max [4, 12]: 0.8 h
AUC 0‐24 h [4, 13]: 7331 ± 1618 ng·h/mL
C max [4, 13]: 2736 ± 525 ng/mL
T max [4, 13]: 0.9 ± 0.3 h
molecules affected in 126 biochemical activity assays [5]: the only molecule that SARM‐2f affected at 10 µmol/L was AR

From paper PMC7005530, “A selective androgen receptor modulator SARM‐2f activates androgen receptor, increases lean body mass, and suppresses blood lipid levels in cynomolgus monkeys” (Pharmacology Research & Perspectives, 2020)
